Test results published in patent US12168012B2, “NLRP3 inflammasome inhibitors” (Novartis AG, priority 2018, dated 2024).
pIC50: −log10 of the molar value. Counter-ions that a name gives are not always drawn.

Assays:
NLRP3 inflammasome = experiment: IL-1β secretion assay; format: cell-based; details: Homo sapiens, THP-1, 3 h, PMA-differentiated THP-1 cells, 15 μM nigericin, HTRF
Experimental: 10 μL supernatant was removed, and IL-1p levels were monitored using an HTRF assay (CisBio, #62IL1PEC) according to manufacturers' instructions. Viability and pyroptosis was monitored with the addition of PrestoBlue cell viability reagent (Life Technologies, #A13261) directly to the cell culture plate.
(§1) IC50 values were calculated from the plot of percentage of inhibition versus the inhibitor concentration by a logistics fit according to: y=A2+(A1−A2)/(1+(x/IC50)^p) where y is the %-inhibition at the inhibitor concentration, x. A1 is the lowest inhibition value, i.e. 0%, and A2 the maximum inhibition value, i.e. 100%. The exponent, p, is the Hill coefficient. The curve fitting was conducted with an internally developed software suite.
NLRP3-dependent IL-1β secretion was stimulated in PMA-differentiated THP-1 cells by the addition of nigericin, and cytokines were measured in the […] after 3 hours. As discussed above, activation of the NLRP3 inflammasome requires both an NF-kB-dependent priming step and the addition of a NLRP3 activator.

[1] = test system: NF-kB-dependent TNF-α secretion; experiment: TNF-α secretion assay (counterscreen); format: cell-based; details: Homo sapiens; THP-1 cells, Pam3CSK4-stimulated, 3 hours, HTRF
Experimental: Monocytic THP-1 cells were maintained according to providers' instructions in RPMI media as described above. Undifferentiated cells were plated at 50,000 cells per well in a 384-well flat-bottom cell culture plates (Greiner, #781986), and allowed to rest overnight. Experimental compounds were prepared and added as described above. TNF-α secretion was triggered by the addition of either 1 μg/mL LPS (Sigma, #L4391) or 100 ng/mL Pam3CSK4 (Invivogen, #tlrl-pms) depending on the experiment, and cells were incubated for 3 hours. 10 μL supernatant was removed, and TNF-α levels were monitored using an HTRF assay (CisBio, #62TNFPEC) according to manufacturers' instructions. Viability was monitored as described above.
as §1, with “suite. […]” for “suite.”

SMILES | pIC50 (NLRP3 inflammasome) | pIC50 [1]
Cc1cc2c(cc3c(=O)n(CC(=O)Nc4cccnc4)nc(C(C)C)n32)s1 [Ex 7, 2-(5-Isopropyl-2-methyl-8-oxothieno[2′,3′:4,5]pyrrolo[1,2-d][1,2,4]triazin-7(8H)-yl)-N-(pyridin-3-yl)acetamide] | 6.59 | < 4.00
CC(C)(O)c1nn(CC(=O)Nc2cccnc2)c(=O)c2cc3sc(Cl)cc3n12 [Ex 8, 2-(2-Chloro-5-(2-hydroxypropan-2-yl)-8-oxothieno[2′,3′:4,5]pyrrolo[1,2-d][1,2,4]triazin-7(8H)-yl)-N-(pyridin-3-yl)acetamide] | 7.06 | < 4.00
CC(C)(O)c1nn(CC(=O)Nc2ccncn2)c(=O)c2cc3sc(Cl)cc3n12 [Ex 9, 2-(2-Chloro-5-(2-hydroxypropan-2-yl)-8-oxothieno[2′,3′:4,5]pyrrolo[1,2-d][1,2,4]triazin-7(8H)-yl)-N-(pyrimidin-4-yl)acetamide] | 8.10 | < 4.00
CC(C)c1nn(CC(=O)N[C@@H]2CCC(=O)NC2)c(=O)c2cc3sc(Cl)cc3n12 [Ex 19, (R)-2-(2-Chloro-5-isopropyl-8-oxothieno[2′,3′:4,5]pyrrolo[1,2-d][1,2,4]triazin-7(8H)-yl)-N-(6-oxopiperidin-3-yl)acetamide] | 7.31 | < 4.00
CC(C)c1nn(CC(=O)NCC(C)(C)CO)c(=O)c2cc3sc(Cl)cc3n12 [Ex 20, 2-(2-Chloro-5-isopropyl-8-oxothieno[2′,3′:4,5]pyrrolo[1,2-d][1,2,4]triazin-7(8H)-yl)-N-(3-hydroxy-2,2-dimethylpropyl)acetamide] | 7.22 | < 4.00
CC(C)c1nn(CC(=O)N[C@@H]2CCC[C@@H](O)C2)c(=O)c2cc3sc(Cl)cc3n12 [Ex 21, 2-(2-Chloro-5-isopropyl-8-oxothieno[2′,3′:4,5]pyrrolo[1,2-d][1,2,4]triazin-7(8H)-yl)-N-((1R,3R)-3-hydroxycyclohexyl)acetamide] | 7.49 | < 4.00
CC(C)c1nn(CC(=O)NC2CC3(COC3)C2)c(=O)c2cc3sc(Cl)cc3n12 [Ex 24, 2-(2-Chloro-5-isopropyl-8-oxothieno[2′,3′:4,5]pyrrolo[1,2-d][1,2,4]triazin-7(8H)-yl)-N-(2-oxaspiro[3.3]heptan-6-yl)acetamide] | 7.40 | < 4.00
CC1(C)CC(NC(=O)Cn2nc(C(C)(C)O)n3c(cc4sc(Cl)cc43)c2=O)C1 [Ex 25, 2-(2-Chloro-5-(2-hydroxypropan-2-yl)-8-oxothieno[2′,3′:4,5]pyrrolo[1,2-d][1,2,4]triazin-7(8H)-yl)-N-(3,3-dimethylcyclobutyl)acetamide] | 7.11 | < 4.00
CC(C)(O)c1nn(CC(=O)NC2CC3(COC3)C2)c(=O)c2cc3sc(Cl)cc3n12 [Ex 26, 2-(2-Chloro-5-(2-hydroxypropan-2-yl)-8-oxothieno[2′,3′:4,5]pyrrolo[1,2-d][1,2,4]triazin-7(8H)-yl)-N-(2-oxaspiro[3.3]heptan-6-yl)acetamide] | 7.33 | < 4.00
CC(C)c1nn(CC(=O)N[C@@H]2CCC[C@@](C)(O)C2)c(=O)c2cc3sc(Cl)cc3n12 [Ex 27, 2-(2-Chloro-5-isopropyl-8-oxothieno[2′,3′:4,5]pyrrolo[1,2-d][1,2,4]triazin-7(8H)-yl)-N-((1R,3R)-3-hydroxy-3-methylcyclohexyl)acetamide] | 7.74 | < 4.00
CC(C)c1nn(CC(=O)N[C@@H]2CCCN(CCF)C2)c(=O)c2cc3sc(Cl)cc3n12 [Ex 28, (R)-2-(2-Chloro-5-isopropyl-8-oxothieno[2′,3′:4,5]pyrrolo[1,2-d][1,2,4]triazin-7(8H)-yl)-N-(1-(2-fluoroethyl)piperidin-3-yl)acetamide] | 7.88 | < 4.00
CN1C[C@H](NC(=O)Cn2nc(C(C)(C)O)n3c(cc4sc(Cl)cc43)c2=O)CCC1=O [Ex 29, (R)-2-(2-Chloro-5-(2-hydroxypropan-2-yl)-8-oxothieno[2′,3′:4,5]pyrrolo[1,2-d][1,2,4]triazin-7(8H)-yl)-N-(1-methyl-6-oxopiperidin-3-yl)acetamide] | 7.45 | < 4.00
CC(C)(O)c1nn(CC(=O)N[C@@H]2CCCN(CCF)C2)c(=O)c2cc3sc(Cl)cc3n12 [Ex 30, (R)-2-(2-Chloro-5-(2-hydroxypropan-2-yl)-8-oxothieno[2′,3′:4,5]pyrrolo[1,2-d][1,2,4]triazin-7(8H)-yl)-N-(1-(2-fluoroethyl)piperidin-3-yl)acetamide] | 7.28 | < 4.00
CC(C)c1nn(CC(=O)N[C@@H]2CCCNC2)c(=O)c2cc3sc(F)cc3n12 [Ex 31, (R)-2-(2-Fluoro-5-isopropyl-8-oxothieno[2′,3′:4,5]pyrrolo[1,2-d][1,2,4]triazin-7(8H)-yl)-N-(piperidin-3-yl)acetamide hydrochloride] | 7.04 | < 4.00
CC(C)c1nn(CC(=O)N[C@@H]2CCCN(C)C2)c(=O)c2cc3sc(F)cc3n12 [Ex 32, (R)-2-(2-Fluoro-5-isopropyl-8-oxothieno[2′,3′:4,5]pyrrolo[1,2-d][1,2,4]triazin-7(8H)-yl)-N-(1-methylpiperidin-3-yl)acetamide] | 8.12 | < 4.00
CC(C)c1nn(CC(=O)N[C@@H]2CCC(=O)NC2)c(=O)c2cc3sc(F)cc3n12 [Ex 33, (R)-2-(2-Fluoro-5-isopropyl-8-oxothieno[2′,3′:4,5]pyrrolo[1,2-d][1,2,4]triazin-7(8H)-yl)-N-(6-oxopiperidin-3-yl)acetamide] | 6.97 | < 4.00
O=C(Cn1nc(C2CC2)n2c(cc3sc(F)cc32)c1=O)N[C@@H]1CCCNC1 [Ex 34, (R)-2-(5-Cyclopropyl-2-fluoro-8-oxothieno[2′,3′:4,5]pyrrolo[1,2-d][1,2,4]triazin-7(8H)-yl)-N-(piperidin-3-yl)acetamide] | 7.10 | < 4.00
CN1CCC[C@@H](NC(=O)Cn2nc(C3CC3)n3c(cc4sc(F)cc43)c2=O)C1 [Ex 35, (R)-2-(5-Cyclopropyl-2-fluoro-8-oxothieno[2′,3′:4,5]pyrrolo[1,2-d][1,2,4]triazin-7(8H)-yl)-N-(1-methylpiperidin-3-yl)acetamide] | 7.32 | 4.40
O=C(Cn1nc(C2CC2)n2c(cc3sc(Cl)cc32)c1=O)N[C@@H]1CCCNC1 [Ex 36, (R)-2-(2-Chloro-5-cyclopropyl-8-oxothieno[2′,3′:4,5]pyrrolo[1,2-d][1,2,4]triazin-7(8H)-yl)-N-(piperidin-3-yl)acetamide hydrochloride] | 6.96 | < 4.00
CN1CCC[C@@H](NC(=O)Cn2nc(C3CC3)n3c(cc4sc(Cl)cc43)c2=O)C1 [Ex 37, (R)-2-(2-Chloro-5-cyclopropyl-8-oxothieno[2′,3′:4,5]pyrrolo[1,2-d][1,2,4]triazin-7(8H)-yl)-N-(1-methylpiperidin-3-yl)acetamide] | 6.99 | < 4.00
Cc1cc2c(cc3c(=O)n(CC(=O)N[C@@H]4CCCNC4)nc(C(C)C)n32)s1 [Ex 38, (R)-2-(5-Isopropyl-2-methyl-8-oxothieno[2′,3′:4,5]pyrrolo[1,2-d][1,2,4]triazin-7(8H)-yl)-N-(piperidin-3-yl)acetamide] | 7.06 | < 4.00
Cc1cc2c(cc3c(=O)n(CC(=O)N[C@@H]4CCC(=O)NC4)nc(C(C)C)n32)s1 [Ex 39, (R)-2-(5-Isopropyl-2-methyl-8-oxothieno[2′,3′:4,5]pyrrolo[1,2-d][1,2,4]triazin-7(8H)-yl)-N-(6-oxopiperidin-3-yl)acetamide] | 6.27 | < 4.00
Cc1cc2c(cc3c(=O)n(CC(=O)N[C@@H]4CCCN(C)C4)nc(C(C)C)n32)s1 [Ex 40, (R)-2-(5-Isopropyl-2-methyl-8-oxothieno[2′,3′:4,5]pyrrolo[1,2-d][1,2,4]triazin-7(8H)-yl)-N-(1-methylpiperidin-3-yl)acetamide] | 7.25 | < 4.00
Cc1cc2c(cc3c(=O)n(CC(=O)NC4CC4)nc(C(C)C)n32)s1 [Ex 41, N-Cyclopropyl-2-(5-isopropyl-2-methyl-8-oxothieno[2′,3′:4,5]pyrrolo[1,2-d][1,2,4]triazin-7(8H)-yl)acetamide] | 5.93 | < 4.00
CC(O)c1nn(CC(=O)Nc2cccnc2)c(=O)c2cc3sc(Cl)cc3n12 (centres unmarked) [Ex 42, 2-(2-Chloro-5-(1-hydroxyethyl)-8-oxothieno[2′,3′:4,5]pyrrolo[1,2-d][1,2,4]triazin-7(8H)-yl)-N-(pyridin-3-yl)acetamide] | 5.96 | < 4.00
